Source: patent US20240124464A1, “SUBSTITUTED FUSED BICYCLIC COMPOUND AS KINASE INHIBITOR AND USE THEREOF” (IMPACT THERAPEUTICS (SHANGHAI), INC, priority 2020, published 2024)
Changes are numbered by the printed parent chain.

Tests used:
NUAK2(h) enzyme = molecular target: T1, NUAK2(h) enzyme (Homo sapiens, UniProt Q9H093); experiment: In vitro NUAK2 enzymatic assay (Eurofins Discovery, [γ-33P]-ATP filter assay); format: biochemical; conditions: 45 μM ATP, 40 min, room temperature; read-out: IC50, inhibitory effect on NUAK2 enzyme activity
T1 construct: purchased Eurofins Discovery
T1 sequence (Q9H093 1-628): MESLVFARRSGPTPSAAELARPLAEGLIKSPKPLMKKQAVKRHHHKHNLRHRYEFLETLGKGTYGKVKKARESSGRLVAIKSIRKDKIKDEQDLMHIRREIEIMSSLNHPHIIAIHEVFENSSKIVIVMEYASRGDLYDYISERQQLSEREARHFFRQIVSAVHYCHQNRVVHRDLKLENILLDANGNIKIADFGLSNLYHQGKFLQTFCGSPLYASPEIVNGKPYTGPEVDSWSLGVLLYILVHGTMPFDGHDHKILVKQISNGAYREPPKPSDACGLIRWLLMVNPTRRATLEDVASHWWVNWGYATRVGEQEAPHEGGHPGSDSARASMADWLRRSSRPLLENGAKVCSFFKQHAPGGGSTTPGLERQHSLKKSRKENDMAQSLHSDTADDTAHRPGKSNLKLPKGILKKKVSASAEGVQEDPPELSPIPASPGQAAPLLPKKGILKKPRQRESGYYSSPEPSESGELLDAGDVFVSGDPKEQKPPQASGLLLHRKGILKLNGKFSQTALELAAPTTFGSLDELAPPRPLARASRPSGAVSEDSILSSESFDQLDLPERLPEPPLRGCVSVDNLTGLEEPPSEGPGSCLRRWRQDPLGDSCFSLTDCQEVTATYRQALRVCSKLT
Description: In Vitro Assay to Determine the Inhibitory Effect of Compounds in the Patent on NUAK2 Enzymatic Activity
The in vitro NUAK2 enzymatic assay was carried out at Eurofins Discovery to evaluate the inhibitory effect of the compounds presented in the invention. The assay protocol is as follow: the compound to be tested was mixed with NUAK2(h) enzyme and 300 […] substrate in 8 mM MOPS (pH 7.0) buffer containing 0.2 mM EDTA. A Mg/ATP mixture containing 10 mM magnesium acetate and 45 μM [γ-33P]-ATP was added to start the reaction. After incubation for 40 min at room temperature, the reaction was terminated by adding 0.5% phosphoric acid. Then 10 μL of the reaction mix was spotted onto a P30 filter paper. The filter paper was washed four times with 0.425% phosphoric acid with 4 min for each wash, and one time with methanol. The filter paper was air-dried and counted in a liquid scintillation counter. The values obtained were plotted against the drug concentration and the IC50 was calculated.
Table 1 summarizes the inhibitory effect (IC50) of compounds on the NUAK2 enzyme activity in the present invention. ++++ indicates IC50≤10 nM; +++ indicates 10 nM<IC50≤100 nM; ++ indicates 100 nM<IC50≤1 μM; + indicates IC50>1 μM.

[1] = tested on: HEC-1-B human endometrial cancer cells; experiment: CTG (CellTiter-Glo) proliferation assay on HEC-1-B cells, 7 days; format: cell-based; conditions: 168 h, 7 days incubation, read-out: IC50, inhibitory effect on proliferation of Hec-1B cells
Description: CTG Assay to Evaluate the Inhibitory Effect of Compounds on HEC-1-B Human Endometrial Cancer Cells
Human endometrial cancer HEC-1-B cells were resuscitated and cultured in complete medium (MEM medium+10% FBS). When reaching about 80% confluence, the cells were gently blown away from the bottom of the culture dish with a 1 mL pipette. The cells were collected and centrifuged at 500 rpm for 3 min. The supernatant was discarded and the cell pellet was resuspend in fresh medium. Cells were counted to determine cell density and seeded into 96-well plates at a density of 1000 cells per well and incubated overnight at 37° C. in a 5% CO2 incubator. In the next day, the compounds in storage solution was serially diluted with DMSO at a ratio of 1:3 for a total of 9 concentrations. Two μL of each serially diluted solution was added to 98 μL of cell culture medium ([…]), while DMSO was mixed with culture medium similarly to be served as control. The compound dilutions were shaken and mixed. The cell culture plate with cells was removed from CO2 incubator, the culture medium was aspirated from each well, 135 μL of fresh medium was added to each well followed with 15 μL of the compound dilutions. The plates were incubated at 37° C. for 7 days in a 5% CO2 incubator. One hundred μL CellTiter-Glo reagent was added to each well and the plate was vortexed for 2 min and incubated for 10 min to fully lyse the cells. The chemiluminescence values were read using a plate reader.
The chemiluminescence values were plotted against compound concentrations to calculate the inhibitory activity of each compound on cell proliferation Cell inhibition rate (%)=(chemiluminescence value tested compound−chemiluminescence value DMSO control)/(chemiluminescence value medium control−chemiluminescence valueDMSO control)×100%.
A nonlinear S-curve regression was fitted using XLFit software to fit the data to derive a dose-effect curve, from which the IC50 values were calculated. The curve equation was Y=Bottom+(Top-Bottom)/(1+10{acute over ( )}((LogIC50-X)×slope)), where Y is the cellular inhibition rate, X is the compound concentration, Bottom refers to the lowest inhibition rate, and Top refers to the highest inhibition rate.
Table 3 summarizes the inhibitory effects (IC50) of the compounds on the proliferation of Hec-1B cells, Where ++++ indicates 100 nM<IC50≤500 nM; +++ indicates 500 nM<IC50≤1 μM; ++ indicates 1 μM<IC50≤10 μM; + indicates IC50>10 μM.

NUAK1(h) enzyme = molecular target: T2, NUAK1(h) enzyme (Homo sapiens, UniProt O60285); experiment: In vitro NUAK1 enzymatic assay (Eurofins Discovery, [γ-33P]-ATP filter assay); format: biochemical; conditions: 45 μM ATP, 40 min, room temperature; read-out: IC50, inhibitory effect on NUAK1 enzyme activity
T2 construct: purchased Eurofins Discovery
T2 sequence (O60285 1-661): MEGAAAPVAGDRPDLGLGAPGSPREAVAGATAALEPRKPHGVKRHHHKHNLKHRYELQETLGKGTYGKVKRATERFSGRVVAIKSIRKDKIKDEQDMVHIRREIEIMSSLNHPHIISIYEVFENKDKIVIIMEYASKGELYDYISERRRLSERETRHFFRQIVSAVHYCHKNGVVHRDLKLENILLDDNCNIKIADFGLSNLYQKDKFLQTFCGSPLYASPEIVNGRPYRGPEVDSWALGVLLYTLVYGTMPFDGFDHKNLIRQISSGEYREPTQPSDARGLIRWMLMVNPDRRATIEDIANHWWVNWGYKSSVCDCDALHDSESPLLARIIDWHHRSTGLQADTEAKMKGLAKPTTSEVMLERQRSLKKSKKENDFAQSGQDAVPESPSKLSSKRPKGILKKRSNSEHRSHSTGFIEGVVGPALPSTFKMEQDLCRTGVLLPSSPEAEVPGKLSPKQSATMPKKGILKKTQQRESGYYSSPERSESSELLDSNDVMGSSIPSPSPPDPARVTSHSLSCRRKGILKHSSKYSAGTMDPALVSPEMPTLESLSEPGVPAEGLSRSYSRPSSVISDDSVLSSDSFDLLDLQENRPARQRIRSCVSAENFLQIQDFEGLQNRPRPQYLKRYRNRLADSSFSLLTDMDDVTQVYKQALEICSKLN
Description: In Vitro Assay to Determine the Inhibitory Effect of Compounds in the Patent on NUAK1 Enzymatic Activity
The in vitro NUAK1 enzymatic assay was carried out at Eurofins Discovery to evaluate the inhibitory effect of the compounds presented in the invention. The assay protocol is as follow: the compound to be tested was mixed with NUAK1(h) enzyme and 300 μM […] substrate in 8 mM MOPS (pH 7.0) buffer containing 0.2 mM EDTA and incubated at room temperature. A Mg/ATP mixture containing 10 mM magnesium acetate and 45 μM [y-33P]-ATP was added to start the reaction. After incubation for 40 min at room temperature, the reaction was terminated by adding 0.5% phosphoric acid. Then, 10 μL of the reaction mix was spotted onto a P30 filter paper followed with four times of wash with 0.425% phosphoric acid solution (4 min each time), and one time wash with methanol. The filter paper was air-dried and counted in a liquid scintillation counter. The values obtained were plotted against the drug concentration and the IC50 was calculated.
Table 1 summarizes the inhibitory effect (IC50) of compounds tested on the NUAK1 enzyme activity in the present invention. ++++ indicates IC50≤10 nM; […]; ++ indicates 100 nM<IC50≤1 μM; + indicates IC50>1 μM.

[2] = molecular target: T3, NUAK1 (mutation from Ala to Thr at position 195) (Homo sapiens, UniProt O60285, A195T); conditions: cited from earlier work
T3 sequence (O60285 1-661 A195T): T2 sequence (O60285 1-661) with A195T

MEF cells = conditions: compared with shRNA knockdown of NUAK1; cited from earlier work
NUAK1 = molecular target: T4, NUAK1 (Homo sapiens, UniProt O60285); conditions: cited from earlier work
T4 sequence (O60285 1-661): T2 sequence (O60285 1-661)

U2OS cell = conditions: 3D invasion assay, compared with NUAK1 knockout; cited from earlier work

| Compound | IC50 (NUAK2(h) enzyme) | IC50 [1] | IC50 (NUAK1(h) enzyme) | resistance of NUAK1 Ala195Thr mutant to the inhibitor [2] | inhibition on proliferation against MEF cells (MEF cells) | inhibition of phosphorylation of MYPT1 by NUAK1 at Ser445 (NUAK1) | inhibition of U2OS cell invasion (U2OS cell) |
| --- | --- | --- | --- | --- | --- | --- | --- |
| CN1CCN(c2ccc(Nc3ncc4c(n3)N(C3CCCC3)C(=O)NC4)c(Br)c2)CC1 [Example 32, 7-((2-bromo-4-(4-methylpiperazin-1-yl)phenyl)amino)-1-cyclopentyl-3,4-dihydropyrimido[4,5-d]pyrimidin-2(1H)-one] | 10 to 100 nM | 1000 to 10000 nM | 10 to 100 nM | – | – | – | – |
| Cc1nc(Nc2cnn(C3CCNCC3)c2)nc2c1N(C)C(=O)c1cc3ccccc3cc1N2C [HTH-01-015] | – | – | – | 50 fold | comparable to that of shRNA knockdown of NUAK1 | inhibit the phosphorylation of MYPT1 | inhibited U2OS cell invasion similarly to NUAK1 knockout did |
| CCC(=O)Nc1cccc(Oc2nc(Nc3ccc(N4CCN(C)CC4)cc3OC)ncc2Cl)c1 [WZ4003] | – | – | – | 50 fold | comparable to that of shRNA knockdown of NUAK1 | inhibit the phosphorylation of MYPT1 | inhibited U2OS cell invasion similarly to NUAK1 knockout did |
